This is an account of results in patent publication EP0560235B1, “Condensed heterocyclic ketone derivatives, their production and use” (priority 1992, dated 1993).

One assay has as its target T1, cholinesterase (Rattus norvegicus, UniProt P37136).
T1 construct: using the S1 fraction of a homogenate of male Wistar rat cerebral cortex as the cholinesterase source; from tissue; host or cells: male Wistar rat cerebral cortex, S1 fraction of homogenate
The experiment in a line: Cholinesterase inhibitory activity assayed with (acetyl-[3H])-acetylcholine, S1 fraction of cerebral cortex homogenate. The class given is biochemical. Conditions: S1 fraction of male Wistar rat cerebral cortex homogenate; (acetyl-[3H])-acetylcholine substrate; 30 minutes incubation; read-out: Acetylcholinesterase inhibitory activity I C50. As for the experimental part: The cholinesterase inhibitory activity of the compound of this invention was assayed with (acetyl-[^3H])-acetylcholine. More specifically, using the S1 fraction of a homogenate of male Wistar rat cerebral cortex as the cholinesterase source, (acetyl[^3H])-acetylcholine as the substrate and the compound of this invention as the test sample were added. The mixture was incubated for 30 minutes, then the reaction was terminated, to which was added a toluene-based scintillant, then the mixture was shaken. The reaction product [^3H]-acetic acid was transferred to the toluene layer, which was subjected to determination of cholinesterase activity by counting with a liquid scintillation counter.

A further assay deals with T2, serotonin (5-HT) uptake (Rattus norvegicus, UniProt P31652).
T2 construct: Crude synaptosomal preparations (P2) were isolated after differential centrifugation; from tissue; host or cells: rat cerebral cortex and hippocampus, crude synaptosomal preparation (P2)
T2 sequence (P31652 whole entry): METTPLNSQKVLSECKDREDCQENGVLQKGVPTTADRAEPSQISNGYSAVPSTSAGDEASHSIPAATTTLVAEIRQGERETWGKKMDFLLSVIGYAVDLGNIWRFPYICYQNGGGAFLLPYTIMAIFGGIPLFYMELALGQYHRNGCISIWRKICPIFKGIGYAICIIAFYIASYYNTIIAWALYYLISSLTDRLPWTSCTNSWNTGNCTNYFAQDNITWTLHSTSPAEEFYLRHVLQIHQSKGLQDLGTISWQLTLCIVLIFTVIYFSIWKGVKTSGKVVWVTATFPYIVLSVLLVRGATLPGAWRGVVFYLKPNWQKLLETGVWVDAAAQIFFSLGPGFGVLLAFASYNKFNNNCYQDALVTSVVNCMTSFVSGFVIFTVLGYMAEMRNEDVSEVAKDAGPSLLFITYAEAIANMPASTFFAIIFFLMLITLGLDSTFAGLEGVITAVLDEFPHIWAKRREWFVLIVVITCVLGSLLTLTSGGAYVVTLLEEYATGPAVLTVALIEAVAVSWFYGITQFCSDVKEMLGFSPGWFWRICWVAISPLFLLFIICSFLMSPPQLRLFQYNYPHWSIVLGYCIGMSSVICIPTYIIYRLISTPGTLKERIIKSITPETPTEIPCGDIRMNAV
Description: Monoamine uptake into crude synaptosomal preparations (P2) of cerebral cortex and hippocampus, [3H]-5-HT. The class given is biochemical, Rats. As for the experimental part:
Effects of the compound of this invention on monoamine uptake were investigated using [^3H]-norepinephirine(NE) and [^3H]-serotonin (5-HT). Rats were sacrificed by decapitation. The cerebral cortex and hippocampus were removed and homogenized in 10-15 volumes (W/V) of an ice-cold medium containing 0.32 M sucrose. Crude synaptosomal preparations (P2) were isolated after differential centrifugation at 1000 x g for 10 min and 20,000 x g for 30 min at 4°C. […] Synaptosomal membrane suspension (900 µl) was preincubated with the test compound dissolved in DMSO solution at 37°C for 5 min. […] Five minutes later, the reaction was stopped by the addition of 4 ml of ice-cold KRB and the reaction mixture was filtered through Whatman GF/B. Filters were washed twice with 4 ml of KRB and the radioactivity bound was counted with liquid scintillant. […] All compounds were tested at 10^-8, 10^-7, 10^-6 and 10^-5M.

T1 sequence (P37136 32-614): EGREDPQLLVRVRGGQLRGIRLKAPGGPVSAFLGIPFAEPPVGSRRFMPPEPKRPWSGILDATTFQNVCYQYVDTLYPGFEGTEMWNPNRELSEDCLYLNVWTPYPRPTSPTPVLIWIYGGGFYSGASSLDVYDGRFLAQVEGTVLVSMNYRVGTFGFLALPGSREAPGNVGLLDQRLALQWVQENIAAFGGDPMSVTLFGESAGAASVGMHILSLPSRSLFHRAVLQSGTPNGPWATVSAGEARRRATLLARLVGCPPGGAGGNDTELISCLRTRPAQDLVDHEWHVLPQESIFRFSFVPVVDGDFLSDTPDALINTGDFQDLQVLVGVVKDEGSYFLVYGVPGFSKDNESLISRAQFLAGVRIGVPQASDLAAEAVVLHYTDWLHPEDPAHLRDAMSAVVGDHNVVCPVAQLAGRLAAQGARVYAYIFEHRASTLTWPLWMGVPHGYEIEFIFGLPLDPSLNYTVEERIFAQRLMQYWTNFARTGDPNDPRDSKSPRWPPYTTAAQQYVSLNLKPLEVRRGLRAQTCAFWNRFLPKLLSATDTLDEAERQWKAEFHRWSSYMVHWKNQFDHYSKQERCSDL

For the molecule `O=C(CCN1CCN(Cc2ccccc2)CC1)c1ccc2c(c1)CNCCC2` [13-3], the IC50 on cholinesterase was 0.0789 µM.
In the case of `O=C(CCN1CCN(Cc2ccccc2)CC1)c1ccc2c(c1)CCN2Cc1ccccc1` [14-1], the IC50 against serotonin (5-HT) uptake was determined as 0.416 µM.
In the case of `O=C(CCN1CCN(Cc2ccccc2)CC1)c1ccc2c(c1)CN(Cc1ccccc1)CCC2` [14-2], the IC50 on cholinesterase is 0.538 µM.
Regarding `O=C(CCN1CCN(Cc2ccccc2)CC1)c1ccc2c(c1)CCN(Cc1cccc(Cl)c1)CC2` [14-4], the IC50 on cholinesterase was determined as 0.147 µM.
Regarding `CCN1CCc2ccc(C(=O)CCN3CCN(Cc4ccccc4)CC3)cc2CC1` [14-5], on cholinesterase, the IC50 amounted to 0.0188 µM.
`O=C(CCN1CCN(Cc2ccccc2Cl)CC1)c1ccc2c(c1)CCN(Cc1ccccc1)CC2` [14-6]: the IC50 on cholinesterase was 0.113 µM; against serotonin (5-HT) uptake, 0.0345 µM.
Turning to `O=C(CCN1CCN(Cc2cccc(Cl)c2)CC1)c1ccc2c(c1)CCN(Cc1ccccc1)CC2` [14-7], at serotonin (5-HT) uptake, the IC50 came to 0.0421 µM.
Regarding `O=C(CCN1CCN(Cc2ccccc2)CC1)c1ccc2c(c1)CCN(Cc1ccc(Cl)cc1)CC2` [14-10], at cholinesterase, the IC50 was determined as 0.167 µM.
Turning to `Cc1ccccc1CN1CCc2ccc(C(=O)CCN3CCN(Cc4ccccc4)CC3)cc2CC1` [14-14], the IC50 on cholinesterase amounted to 0.0636 µM.
Regarding `N#Cc1ccc(CN2CCc3ccc(C(=O)CCN4CCN(Cc5ccccc5)CC4)cc3CC2)cc1` [14-19], the IC50 on cholinesterase stood at 0.0339 µM.
Regarding `O=C(CCN1CCN(Cc2ccccc2)CC1)c1ccc2c(c1)CCN(Cc1cccc(F)c1)CC2` [14-20], the IC50 at cholinesterase stood at 0.0478 µM.
On to `COc1ccccc1CN1CCc2ccc(C(=O)CCN3CCN(Cc4ccccc4)CC3)cc2CC1` [14-21], for which, on cholinesterase, the IC50 was 0.0226 µM.
Still for that read-out and setting: then `COc1ccc(CN2CCc3ccc(C(=O)CCN4CCN(Cc5ccccc5)CC4)cc3CC2)cc1OC` [14-22], with 0.0215 µM.
`Cc1ccc(CN2CCc3ccc(C(=O)CCN4CCN(Cc5ccccc5)CC4)cc3CC2)cc1` [14-23]: the IC50 on cholinesterase was 0.0661 µM; at serotonin (5-HT) uptake, 0.0583 µM.
For the molecule `Cc1cccc(CN2CCc3ccc(C(=O)CCN4CCN(Cc5ccccc5)CC4)cc3CC2)c1` [14-25], the IC50 at cholinesterase was 0.0696 µM.
For `COc1cccc(CN2CCc3ccc(C(=O)CCN4CCN(Cc5ccccc5)CC4)cc3CC2)c1` [14-27], at cholinesterase, the IC50 is 0.133 µM.
As for `COc1ccc(CN2CCc3ccc(C(=O)CCN4CCN(Cc5ccccc5)CC4)cc3CC2)cc1` [14-29], the IC50 on cholinesterase was 0.0257 µM; against serotonin (5-HT) uptake, 0.0544 µM.
For `O=C(CCN1CCN(Cc2ccccc2)CC1)c1ccc2c(c1)CCN(CCc1ccccc1)CC2` [14-31], the IC50 was 0.033 µM at cholinesterase and 0.0305 µM against serotonin (5-HT) uptake.
Taken in the same sequence, the figures for `CC(C)CN1CCc2ccc(C(=O)CCN3CCN(Cc4ccccc4)CC3)cc2CC1` [14-33] were 0.0341 µM and 0.0559 µM.
Taken in the same sequence, the figures for `COc1ccc(CCN2CCc3ccc(C(=O)CCN4CCN(Cc5ccccc5)CC4)cc3CC2)cc1OC` [14-36] were 0.0168 µM and 0.0133 µM.
For `O=C(CCN1CCN(Cc2ccccc2)CC1)c1ccc2c(c1)CCN(C(=O)c1ccccc1)CC2` [17-3], the IC50 on cholinesterase worked out at 0.0825 µM.
With `CC(=O)N1CCc2cc(C(=O)CCN3CCN(Cc4ccccc4)CC3)ccc21` [compound 16], the IC50 at cholinesterase amounted to 0.0251 µM.
Still for that read-out and setting: the figure for `CN1CCc2ccc(C(=O)CCN3CCN(Cc4ccccc4)CC3)cc2CC1` [compound 18] is 0.0338 µM.
